Laboratory results taken from patent US7537887B2, “Net, a transcription factor of the TCF family, as regulator of angiogenic factor expression” (Aventis Pharma S.A., priority 2000, dated 2009).

Experiments:
ERK = ERK activation in GPCR-transfected NIH3T3 cells (Western blot, activated ERK antibody); assay type: cell-based; conditions: 10 μM; FIG. 3
Text: FIG. 3: Phosphorylation of endogenous Net.

Net = conditions: inhibitor 10 μM for 30 min; FIG. 3 lanes 3, 4
Protocol: (§1) NIH3T3 cells were transfected as described above with the control vector for GPCR (pCEFL) or the vector for GPCR (Line 2). 14 hours later, cells were washed and left in the growth medium for 2.5 hours. The cells were then treated with SB 203580 (10 μM) (Alexis Corp.) or U0126 (10 μM) (Promega) for 30 min. After 6 hours, extracts were analysed by SDS-PAGE and Western-blotting with antibodies against phospho-serine 365 Net (antibody 2F3, Ducret et al. (Oncogene, in press) or activated ERK (Promega).
Phosphorylation of endogenous Net was followed with a phospho-specific antibody that recognises phospho-serine 365, which is important for phosphorylation induced activation of Net by ERK and p38 signalling cascades.
as §1, with “(pCEFL-GPCR).” for “(Line 2).”, “[Antibody 2F3 , Giovane” for “(antibody 2F3, Ducret”, “(Genomics (1995) 29:769-72)]” for “(Oncogene, in press)”

NES binding to CRM1 = NES binding to CRM1 (Homo sapiens, UniProt O14980); conditions: cited from earlier work
Chain of NES binding to CRM1 (O14980 whole entry): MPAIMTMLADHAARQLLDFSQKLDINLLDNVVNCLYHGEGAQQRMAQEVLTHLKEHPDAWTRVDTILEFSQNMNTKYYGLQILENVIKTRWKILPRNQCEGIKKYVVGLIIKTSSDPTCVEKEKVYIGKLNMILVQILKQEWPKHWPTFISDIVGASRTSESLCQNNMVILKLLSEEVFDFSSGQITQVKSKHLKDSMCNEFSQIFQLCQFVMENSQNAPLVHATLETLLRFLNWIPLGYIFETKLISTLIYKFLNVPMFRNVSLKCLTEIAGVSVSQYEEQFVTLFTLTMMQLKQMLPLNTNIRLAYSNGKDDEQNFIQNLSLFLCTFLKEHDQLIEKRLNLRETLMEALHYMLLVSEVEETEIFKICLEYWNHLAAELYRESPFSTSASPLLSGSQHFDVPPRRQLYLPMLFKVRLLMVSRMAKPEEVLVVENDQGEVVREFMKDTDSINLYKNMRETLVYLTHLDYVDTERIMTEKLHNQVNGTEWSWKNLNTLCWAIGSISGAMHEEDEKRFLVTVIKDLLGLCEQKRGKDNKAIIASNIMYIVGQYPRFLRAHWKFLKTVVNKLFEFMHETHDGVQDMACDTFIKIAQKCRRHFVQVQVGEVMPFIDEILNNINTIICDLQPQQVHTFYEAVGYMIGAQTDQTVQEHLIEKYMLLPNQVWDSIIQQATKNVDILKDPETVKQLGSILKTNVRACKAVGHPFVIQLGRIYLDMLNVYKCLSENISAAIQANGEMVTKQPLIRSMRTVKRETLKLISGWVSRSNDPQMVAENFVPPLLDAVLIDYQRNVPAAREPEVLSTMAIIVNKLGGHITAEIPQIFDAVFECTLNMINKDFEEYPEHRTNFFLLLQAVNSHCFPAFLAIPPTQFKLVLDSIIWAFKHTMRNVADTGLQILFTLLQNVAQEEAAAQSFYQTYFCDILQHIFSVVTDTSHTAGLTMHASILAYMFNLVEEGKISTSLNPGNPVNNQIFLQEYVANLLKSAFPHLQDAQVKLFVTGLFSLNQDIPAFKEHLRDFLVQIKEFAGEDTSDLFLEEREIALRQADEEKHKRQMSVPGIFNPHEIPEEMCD

HUVEC cells = experiment: Microtubule formation by HUVEC cells on Matrigel induced by conditioned media from transfected NIH3T3 cells; assay type: cell-based; conditions: 10 ng/ml recombinant human VEGF added to conditioned medium; FIG. 1d, 1f
Protocol: FIG. 1: Microtubule formation by HUVEC cells on Matrigel induced by conditioned media from differentially transfected NIH3T3 cells. NIH3T3 cells were transfected by pCEFL-GPCR alone (FIG. 1a); pCEFL-GPCR with p601D-antisense-Net (FIG. 1c) or p601D-transdominant-Net (FIG. e). Before incubation with HUVEC cells, some of the conditioned media were incubated with either: (b) 0.2 μg/ml of anti-mouse-VEGF polyclonal antibody (total goat IgG; R&D SYSTEMS) or with (d and f) 10 ng/ml of recombinant human VEGF-A (R&D). The plates were observed after 24 hours (phase contrast, original magnification, ×40).
a. NIH3T3 cells (C11) were transfected by the calcium phosphate technique with pCEFL-KSHVGPCR (mouse EF12 promoter) and the AntiNet expression vector or the corresponding empty vector (p601D: Beddinton et al.1989,Development 106:37-46). 16 hours after applying the precipitate, the cells were washed twice with DMEM, incubated in DMEM with 0,05% FCS for 48 hours. The medium was collected and either tested immediately or stored at −80° C.
b. HUVEC cells (passage 4-6) were grown in DMEM/F12K containing 10% FCS, Heparine (50 ng/mnl), ECGF(Endothelial Cell Growth Factor, Sigma, 50 ng/ml) and Glutamine (2 mM).
c. The wells of 24-multiwell plates were coated with […] of Growth Factor Reduced MATRIGEL Matrix (Collaborative Biomedical Products) at 4° C. and incubated for 30 min at 37° C.
d. […]

C[S+]([O-])c1ccc(-c2nc(-c3ccncc3)c(-c3ccc(F)cc3)[nH]2)cc1 (centres unmarked) [SB 203580, 4-[5-(4-fluorophenyl)4-4-(pyridinyl)-1H-imidazol-2-yl]phenyl methyl sulfoxide]
ERK activation (ERK): did not inhibit ERK activation
GPCR induced phosphorylation of Net (phospho-serine 365) (Net): induction was dependent on both the p38 and ERK pathways

N#CC(=C(N)Sc1ccccc1N)C(C#N)=C(N)Sc1ccccc1N [U 0126, 1,4-diamino-2,3-dicyano-1,4 bis[2-aminophenylthio]butadiene]
GPCR induced phosphorylation of Net (phospho-serine 365) (Net): induction was dependent on both the p38 and ERK pathways

CCC(=C/[C@H](C)C/C=C/C(C)=C/[C@@H](C)C(=O)[C@@H](C)[C@H](O)[C@@H](C)C/C(C)=C/C(=O)O)/C=C/[C@@H]1OC(=O)C=C[C@@H]1C [leptomycin B]
active nuclear export of the Net protein induced by the JNK pathway (NES binding to CRM1): inhibited

B1: VEGFa: recombinant human VEGF-A (R&D) (protein)
chain: APTTEGEQKSHEVIKFMDVYQRSYCRPIETLVDIFQEYPDEIEYIFKPSCVPLMRCAGCCNDEALECVPTSESNITMQIMRIKPHQSQHIGEMSFLQHSRCECRPKKDRTKPENHCEPCSERRKHLFVQDPQTCKCSCKNTDSRCKARQLELNERTCRCDKPRR
microtubule inducing activity of conditioned medium from Net down-regulated GPCR cells after adding VEGFa (HUVEC cells): restored microtubule inducing activity
